Consider nine compounds from BindingDB's records for patent US12378224 (Dong-A Socio Holdings Co., 2025).

Molecules are shown by their SMILES. Where only a bound is given, the exact number is not on record here.

As a reminder, the IC50 is the concentration needed to halve the response being measured. A low value points to greater potency in that assay.

The target of the first assay is T1, Tyrosine-protein kinase Mer/Tyrosine-protein kinase UFO (Human, UniProt P30530+Q12866).
T1 sequence (P30530 whole entry): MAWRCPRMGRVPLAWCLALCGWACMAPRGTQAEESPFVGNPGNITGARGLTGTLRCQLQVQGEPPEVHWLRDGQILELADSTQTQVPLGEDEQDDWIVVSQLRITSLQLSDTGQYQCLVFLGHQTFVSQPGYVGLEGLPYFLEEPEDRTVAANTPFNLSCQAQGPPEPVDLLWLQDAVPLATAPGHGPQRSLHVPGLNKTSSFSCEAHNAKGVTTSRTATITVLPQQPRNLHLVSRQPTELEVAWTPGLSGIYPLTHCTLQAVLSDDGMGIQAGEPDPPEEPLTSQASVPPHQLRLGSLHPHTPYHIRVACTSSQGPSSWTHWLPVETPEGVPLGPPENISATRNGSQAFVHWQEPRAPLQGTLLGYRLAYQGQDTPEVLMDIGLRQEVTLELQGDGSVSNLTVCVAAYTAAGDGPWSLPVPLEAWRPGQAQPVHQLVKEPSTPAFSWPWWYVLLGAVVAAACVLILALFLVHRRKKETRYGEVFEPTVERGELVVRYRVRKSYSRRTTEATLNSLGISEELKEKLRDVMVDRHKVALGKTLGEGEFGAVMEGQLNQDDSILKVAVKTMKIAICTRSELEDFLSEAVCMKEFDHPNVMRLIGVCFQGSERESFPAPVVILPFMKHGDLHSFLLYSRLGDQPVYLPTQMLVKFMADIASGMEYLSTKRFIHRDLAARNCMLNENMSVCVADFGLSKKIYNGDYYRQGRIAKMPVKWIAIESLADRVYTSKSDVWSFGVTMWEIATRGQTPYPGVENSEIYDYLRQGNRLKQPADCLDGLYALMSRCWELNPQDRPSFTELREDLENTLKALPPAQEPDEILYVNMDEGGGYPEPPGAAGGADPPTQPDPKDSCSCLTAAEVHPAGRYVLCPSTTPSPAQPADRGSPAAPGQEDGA
T1 sequence (Q12866 whole entry): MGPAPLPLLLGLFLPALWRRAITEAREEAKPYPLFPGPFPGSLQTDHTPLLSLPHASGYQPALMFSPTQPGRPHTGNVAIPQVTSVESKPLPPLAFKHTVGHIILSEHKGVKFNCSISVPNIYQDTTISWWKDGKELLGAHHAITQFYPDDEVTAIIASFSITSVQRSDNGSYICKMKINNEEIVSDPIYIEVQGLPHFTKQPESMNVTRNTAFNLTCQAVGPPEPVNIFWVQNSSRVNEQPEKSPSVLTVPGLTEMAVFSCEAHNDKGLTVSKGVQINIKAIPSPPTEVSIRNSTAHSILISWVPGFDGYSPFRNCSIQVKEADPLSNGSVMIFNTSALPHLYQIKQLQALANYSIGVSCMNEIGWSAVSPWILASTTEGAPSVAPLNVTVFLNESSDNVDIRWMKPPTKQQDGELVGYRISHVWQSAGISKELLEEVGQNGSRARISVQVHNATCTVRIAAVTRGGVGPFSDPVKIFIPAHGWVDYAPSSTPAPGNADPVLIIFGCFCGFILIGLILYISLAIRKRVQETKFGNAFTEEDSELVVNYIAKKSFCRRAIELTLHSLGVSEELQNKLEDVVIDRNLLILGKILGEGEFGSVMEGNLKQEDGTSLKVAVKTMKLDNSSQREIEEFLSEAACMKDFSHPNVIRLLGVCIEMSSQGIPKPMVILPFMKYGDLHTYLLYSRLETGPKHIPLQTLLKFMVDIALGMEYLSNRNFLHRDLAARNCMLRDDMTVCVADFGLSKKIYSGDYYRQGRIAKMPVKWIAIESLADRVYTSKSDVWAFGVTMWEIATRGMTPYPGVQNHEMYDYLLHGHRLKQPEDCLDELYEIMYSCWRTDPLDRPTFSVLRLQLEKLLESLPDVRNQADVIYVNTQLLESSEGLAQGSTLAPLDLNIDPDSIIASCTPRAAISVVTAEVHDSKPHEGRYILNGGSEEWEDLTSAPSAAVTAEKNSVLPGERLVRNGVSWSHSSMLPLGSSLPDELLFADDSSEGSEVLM
As to the kind of experiment: TR-FRET Kinase Activity Biochemical Assay. An excerpt: Table 2: For the SAR (structure-activity relationship) and compound screening, LanthaScreen™ TR-FRET (Time-Resolved fluorescence energy transfer) assay was employed using the phospho-tyrosine specific Terbium (Tb)-labelded antibody with a fluorescein labeled poly-GT (glutamate-tyrosine) as a substrate. Upon excitation at 340 nm by UV, the energy from Tb donor of the antibody is transferred to the fluorescein of the phosphorylated poly GT substrate, and fluorescein emits light at 520 nm. The ratio between the intensity of primary emission at 495 nm and that of secondary emission at 520 nm was used to quantify the level of kinase activity. The recombinant proteins of human c-MER and AXL catalytic domains, Fluorescein-labeled poly-GT substrate, Tb-labeled anti-phosphorylated tyrosine antibodies, the kinase assay buffer, and 0.5M EDTA solution were purchased (Life technologies, USA). The TR-FRET assays were carried out in the white low volume 384-well plate (Corning, USA). […] 10 mM EDTA was added to terminate the enzyme reaction, and the level of phosphorylation of poly-GT substrate was determined following 30 min incubation with 2 nM Tb-labeled antibody. The fluorescence intensity was measured with Envision™ plate reader (PerkinElmer, USA).
Background: TR-FRET usually uses a lanthanide donor and a delayed reading to cut background.
In the case of `Cn1cc(-c2cnc(N)c(C(=O)N[C@@H]3CCN(C(=O)c4ccc(-c5cccc(Cl)c5Cl)cc4)C3)c2)cn1` [US12378224, Example 369], the IC50 is under 10 nM.

Turning to `CN1CCN(Cc2ccc(-c3cnc(N)c(C(=O)N[C@@H]4CCN(C(=O)c5ccc(-c6ccccc6Cl)cc5)C4)c3)cc2)CC1` [US12378224, Example 572], the IC50 was under 10 nM.

On to `CN1CCC(CNC(=O)c2ccc(-c3cnc(N)c(C(=O)N[C@@H]4CCN(C(=O)c5ccc(-c6ccccc6Cl)cc5)C4)c3)cc2)C1` (some centres undefined) [US12378224, Example 594], for which the IC50 was under 10 nM.

The target in a further assay is T2, Tyrosine-protein kinase Mer/Tyrosine-protein kinase receptor UFO/Tyrosine-protein kinase receptor TYRO3 (Human, UniProt P30530+Q06418+Q12866).
T2 sequence (Q06418 whole entry): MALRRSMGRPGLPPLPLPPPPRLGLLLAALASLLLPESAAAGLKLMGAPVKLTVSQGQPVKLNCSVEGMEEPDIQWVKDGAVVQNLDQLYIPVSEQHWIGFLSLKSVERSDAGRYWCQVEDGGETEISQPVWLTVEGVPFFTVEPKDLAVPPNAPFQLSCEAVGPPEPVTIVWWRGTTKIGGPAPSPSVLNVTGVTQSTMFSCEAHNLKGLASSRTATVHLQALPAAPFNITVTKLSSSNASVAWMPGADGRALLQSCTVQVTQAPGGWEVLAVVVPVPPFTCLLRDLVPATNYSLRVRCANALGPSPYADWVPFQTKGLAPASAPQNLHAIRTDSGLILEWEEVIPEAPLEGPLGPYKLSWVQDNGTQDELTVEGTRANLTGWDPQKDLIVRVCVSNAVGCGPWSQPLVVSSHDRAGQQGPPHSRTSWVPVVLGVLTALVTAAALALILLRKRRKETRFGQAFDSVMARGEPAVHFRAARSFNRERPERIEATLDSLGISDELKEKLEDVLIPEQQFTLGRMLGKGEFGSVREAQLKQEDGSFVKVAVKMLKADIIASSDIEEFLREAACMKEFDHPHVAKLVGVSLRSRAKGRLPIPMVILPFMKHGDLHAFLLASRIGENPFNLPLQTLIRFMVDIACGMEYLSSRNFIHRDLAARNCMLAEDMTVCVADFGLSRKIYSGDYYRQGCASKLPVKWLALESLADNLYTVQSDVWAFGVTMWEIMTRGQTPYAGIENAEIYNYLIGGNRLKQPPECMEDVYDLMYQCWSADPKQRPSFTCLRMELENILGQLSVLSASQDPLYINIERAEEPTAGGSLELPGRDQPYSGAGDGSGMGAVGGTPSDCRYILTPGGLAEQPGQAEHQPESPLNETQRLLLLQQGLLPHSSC
T2 sequence (P30530 whole entry): T1 sequence (P30530 whole entry)
T2 sequence (Q12866 whole entry): T1 sequence (Q12866 whole entry)
Briefly: HTRF Kinase Activity Biochemical Assay. Here is the method:
Table 3: For the SAR (structure-activity relationship) and compound screening, HTRF (Homogeneous Time Resolved Fluorescence) kinase activity assay was employed for all MER, AXL and TYRO3 kinases using Cisbio HTRF KinEASE™-TK kit (Cisbio, USA). The kit includes biotin-labeled TK substrate, streptavidin-XL665, Eu3+-cryptate-labeled TK antibody and HTRF Detection buffer. There are two main steps in the kinase assay: kinase reaction and detection of phosphorylated substrate. The reaction was carried out in white low volume 384-well plate (Corning, USA) with 25 nL compound in dimethyl sulfoxide in each well. […] Then the reaction was stopped after 1 hour incubation at room temperature by adding 5 uL of HTRF Detection buffer which also contains 0.375 nM Eu3+-cryptate-labeled TK antibody and 0.062 uM streptavidin-XL665(SA-XL665) to allow for detection of the phosphorylated peptide product. After 1 h incubation at room temperature, the fluorescence intensity was measured with Envision™ plate reader (PerkinElmer, USA). Upon excitation at 340 nm by UV, the energy from Eu3+ donor of the antibody is transferred to the FRET acceptor XL665, and […] emits light at 665 nm. The level of kinase activity was quantified by the HTRF ratio that calculated from the intensity of emission at 665 nm and emission at 620 nm (fluorescence intensity @ 665 nm/fluorescence intensity @ 620 nm×10,000). The recombinant protein of human MER (528-end) was purchased from Carnabio, Japan. The recombinant human AXL (473-end) and TYRO3 (455-end) were purchased from SignalChem, Canada.
Regarding `Cn1cc(-c2cnc(N)c(C(=O)N[C@@H]3CCN(C(=O)Nc4ccc(C#N)cc4)C3)c2)cn1` [US12378224, Example 7], the IC50 was over 1000 nM.

In turn, `Nc1ncc(-c2ccc(S(=O)(=O)N3CCC3)cc2)cc1C(=O)N[C@@H]1CCN(C(=O)c2ccc(-c3ccccc3Cl)cc2)C1` [US12378224, Example 574] registered an IC50 of over 1000 nM.

`Nc1ncc(-c2ccnc(N3CCNCC3)c2)cc1C(=O)N[C@@H]1CCN(C(=O)c2ccc(-c3ccc(F)cc3Cl)cc2)C1` [US12378224, Example 581]: the IC50 was under 10 nM.

`CN1CCN(c2ccc(-c3cnc(N)c(C(=O)N[C@@H]4CCN(C(=O)c5ccc(-c6ccc(F)cc6Cl)cc5)C4)c3)cc2)CC1` [US12378224, Example 585] came in with a concentration for half-maximal inhibition (IC50) of under 10 nM.

On to `CN1CCC(NC(=O)c2ccc(-c3cnc(N)c(C(=O)N[C@@H]4CCN(C(=O)c5ccc(-c6ccccc6Cl)cc5)C4)c3)cc2)CC1` [US12378224, Example 591], for which the IC50 is under 10 nM.

As for `CC1CCC(NC(=O)c2ccc(-c3cnc(N)c(C(=O)N[C@@H]4CCN(C(=O)c5ccc(-c6ccccc6Cl)cc5)C4)c3)cc2)CC1` (some centres undefined) [US12378224, Example 592], the IC50 is over 1000 nM.
